Holding throughout (experiment): NCI anticancer screen, dose series, 48 h
The test system of assay [1] is A498 renal.
Assay [2] relates to UACC-257 melanoma.
For assay [3], the system named is CAKI-1 renal.
Assay [4] concerns TK-10 renal.
The test system of assay [5] is NCI-H226 lung.
For assay [6], the system named is HS 578T breast.
Assay [7] deals with MDA-MB-435.
Assay [8] relates to MALME-3M melanoma.
For assay [9], the system named is MCF7 breast.
Assay [10] deals with NCI-H460 lung.

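A five-concentration, 48-hour dose response in 96-well plates underlies each endpoint, interpolated linearly between surrounding concentrations. GI50: concentration for 50% inhibition of growth. At the TGI there is no net growth.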

As to `N#CCc1c(F)c(F)c(F)c(F)c1F`, the TGI in assay [1], in [2], in [3], in assay [4], in assay [5] and in [6] was over 100 µM each time. Further, the TGI in [7], in [8] and in [9] was over 100 µM each time.

Consider `COc1ccccc1-n1cnc(N)c1C(=O)c1cc(OC)c(OC)c(OC)c1`, for which the GI50 in assay [1] is 2.79 µM; in [3], 3.12 µM; in assay [4] it was 5.21 µM; in [5], 4.34 µM; in [6] it was 2.16 µM; in assay [7] it was 1.07 µM. The GI50 in [8] is 4.33 µM; in assay [9] it was 2.49 µM; in assay [10] it was 3.47 µM. For the same compound, the TGI in assay [1] was 9.69 µM; in assay [3], over 100 µM; in assay [4], over 100 µM; in assay [5], over 100 µM; in assay [6] it was 7.69 µM; in assay [7] it was 3.81 µM. Also, the TGI in assay [8], in assay [9] and in [10] was over 100 µM in each case.

`OCC1NC(COC2OC(CO)C(O)C(O)C2O)C(O)C(O)C1O` (stereo not drawn): the TGI in assay [1], in assay [2], in assay [3], in [4], in [5] and in [7] was over 100 µM each time. Also, the TGI in assay [8], in assay [9] and in [10] was over 100 µM in each case.

Regarding `Cc1c2cnccc2c(C)c2c1c1cc(O)ccc1n2C(C)C`, the GI50 is 2 µM in [1]; 0.388 µM in assay [3]; 3.31 µM in assay [4]; 2.82 µM in assay [5]; 1.23 µM in assay [6]; 1.04 µM in assay [7]. The figures for the GI50 in [8], in [9] and in [10] were 0.756 µM, 1.37 µM and 0.361 µM, respectively. For the same compound, the TGI in assay [1] came out at 13.3 µM; in [3], 5.24 µM; in [4] it was 8.55 µM; in assay [5] it was 11.6 µM; in assay [6], 4.55 µM; in assay [7], 2.29 µM. For the same compound, the figures for the TGI in [8], in assay [9] and in [10] were 2.58 µM, 4.82 µM and 1.56 µM, respectively.

Take `Cc1cc(S(=O)(=O)/N=C(\N)Nc2cccc(O)c2)c(SCc2ccccc2)cc1Cl`: the GI50 was 17.8 µM in assay [1]; 17.7 µM in [2]; 16 µM in [3]; 21.2 µM in assay [4]; 24 µM in assay [5]; 24.4 µM in assay [6]. Further, the values for the GI50 in assay [7], in [8] and in [9] were 14.2 µM, 27.9 µM and 11.5 µM, respectively. Also, the TGI in [1] came out at 35.7 µM; in assay [2] it was 35.1 µM; in assay [3] it was 34.2 µM; in assay [4], 49.5 µM; in [5] it was 62.3 µM; in [6] it was 82.9 µM. Besides, the TGI in assay [7] is 32.5 µM; in [8] it was 63.9 µM; in [9], 78.9 µM.

Consider `OCC#CCOCC#Cc1ccccc1C#CCOCC#CCO`, for which the GI50 is 58.7 µM in [1]; 35.5 µM in assay [2]; 82.8 µM in assay [3]; 24.4 µM in assay [4]; 41.4 µM in assay [5]; over 100 µM in assay [6]. The GI50 in assay [7] was 53.3 µM; in [9] it was 40.7 µM; in assay [10], 48.6 µM. In addition, the TGI in [1] is over 100 µM; in assay [2] it was over 100 µM; in [3], over 100 µM; in assay [4] it was 68.8 µM; in assay [5] it was over 100 µM; in assay [6], over 100 µM. Besides, the TGI in assay [7], in assay [9] and in assay [10] was over 100 µM throughout.

For `O/N=C1/CCCC/C1=C/C=C/c1ccccc1`, the TGI in [1] is 41.2 µM; in [2], 64 µM; in assay [3] it was over 100 µM; in assay [4], 62 µM; in [5], 60.7 µM; in [8], 41 µM. In [10], the TGI was determined as 53.8 µM.

For `NCCOc1ccc(/C(=C(/Cl)c2ccccc2)c2ccccc2)cc1`, the TGI in assay [1] was 34.1 µM; in [2], 24.8 µM; in [3], 23.2 µM; in assay [4], 26.2 µM; in [5], 36.7 µM; in [8] it was 24.3 µM. The TGI in [10] stood at 21.6 µM.

As to `Cc1cc2c(cc1Cl)SC(N(c1ccccc1Cl)S(=O)(=O)c1ccc(Br)s1)=NS2(=O)=O`, the GI50 in [1] was 11.3 µM; in assay [3], 19.4 µM; in [4], 21.9 µM; in [5] it was 23.1 µM; in assay [6] it was 18 µM; in [7], 13.2 µM. Also, the GI50 in [8] was 13.8 µM; in [9], 8.88 µM; in [10], 13.9 µM. The TGI in assay [1] was 42 µM; in assay [3] it was 48.4 µM; in assay [4], 66.4 µM; in assay [5] it was over 100 µM; in assay [6], 41.4 µM; in assay [7] it was 31.6 µM. Moreover, the TGI in assay [8] was 39.4 µM; in assay [9], 28.8 µM; in assay [10], 36.3 µM.

Regarding `Cc1ccccc1/C=C/c1csnn1`, the TGI in assay [1], in assay [2], in [3], in assay [4], in assay [5] and in assay [8] was over 100 µM throughout. Moreover, the TGI in assay [10] was over 75.6 µM.

Regarding `CCCCC(C(=O)C(=O)Nc1ccc(C)cc1C)C(=O)C(C)C` (stereo not drawn), the TGI in assay [1], in [2], in assay [3], in assay [4], in assay [5] and in [8] was over 100 µM throughout. The same compound came in with a TGI in assay [10] of over 100 µM.

In the case of `C[N+]1=C(c2cccnc2/C=N/O)OCC1(C)C`, the TGI in assay [1], in assay [2], in [3], in [4], in assay [5] and in assay [8] was over 100 µM throughout. This compound also returned a TGI in assay [10] of over 100 µM.

The values above are taken from PubChem BioAssay (NCI).
